Source: patent publication US9709557B2, “Anthraquinone based near IR emitting compounds and uses thereof” (LIFE TECHNOLOGIES CORPORATION, priority 2008, dated 2017)

Experiments:
[1] = tested on: U-2 OS cells (ATCC HTB-96); assay: Imaging of cells stained with near-IR DNA stain (Example 48); type: cell-based; conditions: 20 μM, live, fixed or simultaneously fixed cells
Experimental: Live U-2 OS cells (ATCC HTB-96) were treated with Compound 9 under various conditions and imaged with a 10×/0.3 objective on an ArrayScan VTI automated microscope platform (ThermoFisher/Cellomics). […] Such staining patterns have been routinely utilized in auto-focus and cell identification in automated microscopy. Cells were fixed with 3.7% formaldehyde (diluted from Sigma F1635) in the presence of 20 μM Compound 9 for 30 minutes at room temperature. The fixed cells were imaged and show similar prominent nuclear and dim cytosolic labeling (FIG. 4).

Live Jurkat cells [2] = assay: DNA staining of live cells (diluted samples), cell cycle analysis by flow cytometry (Example 38); type: cell-based, human
Experimental: Aliquots of a compound of the invention (e.g., Compound 9 or a salt thereof) are diluted to a concentration of 5 mM in de-ionized water (DI) or in DMSO. Live Jurkat cells are suspended at 5×10^5 cells/ml in each RPMI media with 10% FBS. Compound from each solution (DI and DMSO) is added to each of one mL cell suspensions at a concentration 5 μM and then incubated at 37° C. for 30 minutes while protected from light. Cells are run through a Becton Dickinson (BD) LSRII Flow Cytometer. Forward Scatter (FS) versus Side Scatter (SS) dual parameter plot is used to gate main cell population. Fluorescence is collected using two lasers: the 488 nm excitation laser with 695/40, and 780/60 bandpass emission filter, and using the 633 nm excitation laser with 780/60, 710/50, and 660/20 bandpass emission filters. Fluorescence is also collected with the 488 nm laser and the 530/30 and 575/26 bandpass emission filters to observe for any fluorescence spillover in these detectors. Collection of at least 10,000 events is performed at a flow rate of ˜200 events/second. The data is analyzed to evaluate the ratio of G2/G1 and the % CV of G1 phase, as described herein. Compound 9 was evaluated using the described procedures and was effective as a DNA stain for use in DNA cell cycle analysis. The compound was excited by both lasers with emission in the far red and near-IR regions of the spectrum. […] Table 2 summarizes data for live Jurkat cells suspended in RPMI media+10% FBS treated with 5 μM Compound 9 (as a 5 mM DMSO or DI solution).

Live Jurkat cells [3] = assay: DNA staining of live cells, 15 minute incubation, MODFIT analysis (Example 47); type: cell-based, human; conditions: 1.25, 2.5, 5, 10 μM, 37° C. and room temperature, 15 min
Experimental: Live Jurkat cells are suspended at 5×10^5 cells/ml in RPMI media Compound 9 is added to each of one mL cell suspensions at final concentrations 1.25 μM, 2.5 μM, 5 μM, and 10 μM and then incubated at 37° C. and room temperature for 15 minutes while protected from light. Cells are run through the Becton Dickinson (BD) LSRII Flow Cytometer. Forward Scatter (FS) versus Side Scatter (SS) dual parameter plot is used to gate main cell population. Fluorescence is collected using two lasers: the 488 nm excitation laser with 695/40 bandpass emission filter, and using the 633 nm excitation laser with 695/40 bandpass emission filters, collecting 10,000 events at flow rate of ˜200 events/second. The data is further analyzed using MODFIT LT Flow Cytometry Modeling Software from Verity Software House, Inc. to look at ratio of G2/G1 and the % CV of G1 phase.

Live Jurkat cells [4] = assay: DNA staining of live cells, 15 minute incubation (Example 46); type: cell-based, human; conditions: 2.5, 5, 10 μM, 37° C., 15 min; 488 and 633 nm lasers, 695/40
Experimental: Compound 9 is diluted as a 5 mM concentration in DMSO. Live Jurkat cells are suspended at 5×10^5 cells/ml in RPMI media with 10% Fetal Bovine Serum (FBS). Compound 9 was is added to each of one mL cell suspensions at concentrations 2.5 μM, 5 μM, 10 μM and then incubated at 37° C. for 15 minutes while protected from light. Cells are run through the Becton Dickinson (BD) LSRII Flow Cytometer. Forward Scatter (FS) vs Side Scatter (SS) dual parameter plot is used to gate main cell population. Fluorescence is collected using two lasers: the 488 nm excitation laser with 695/40 bandpass emission filter, and using the 633 nm excitation laser with 695/40 bandpass emission filter. Collection of 10,000 events gated on the main population of cells was performed using a flow rate of ˜200 events/second. […] A typical DNA cell cycle histogram was generated, showing G0/G1 phase, S phase, and G2/M phase, as obtained on the live cell gate, with all concentrations of the compound.

Live Jurkat cells [5] = assay: DNA staining of live cells and DNA content cell cycle analysis using flow cytometry (Example 36); type: cell-based, human; conditions: for G2/G1 ratio: 30 min
Experimental: Live Jurkat cells are suspended at 5×10^5 cells/ml in each RPMI media with 10% Fetal Bovine Serum (FBS) and Hanks Balanced Salt Solution (HBSS). A compound (e.g., Compound 9 or a salt thereof) is added to each of one mL cell suspensions at concentrations 1 μM, 5 μM, 10 μM, and 20 μM, and then incubated at 37° C. or room temperature for 30 minutes while protected from light. Cells are run through a Becton Dickinson (BD) LSRII Flow Cytometer. Forward Scatter (FS) versus Side Scatter (SS) dual parameter plot is used to gate main cell population. Fluorescence is collected using three lasers: 488 nm excitation laser with 670/14, 720/20 and 787/42 bandpass emission filter, 532 nm excitation laser with 585/42 and 780/60 bandpass emission filters, and 633 nm excitation laser with 695/40, and 787/42 bandpass emission filters. Collection of at least 10,000 events at flow rate of ˜200 events/second. The data is further analyzed using MODFIT LT Flow Cytometry Modeling Software from Verity Software House, Inc. to evaluate the ratio of G2/G1 and the % CV of G1 phase.
DNA content analysis in living cells is expected to produce variable results. Depending on the cell type, the % CV of the mean DNA content of a uniform cell population may vary from between 5%-10%. Although there is no formal consensus regarding the acceptable maximal CV value for the mean DNA content of the G0G1 phase, the % CV of normal diploid cells in a histogram generally is <8%. The CV of a tumor may be higher due to the presence of multiple tumor subpopulations. However, tumor CVs of <8% are recommended for useful S-Phase determinations (Cytometry, Vol. 14 (5), 1993, page 474).
Linearity is the observed ratio between the DNA Diploid G2M and G0G1 positions. The ratio normally is about two, but this ratio may deviate from the ideal value even under normal conditions (see, MODFIT LT User Guide, June 2000).

SMILES: CN(C)CCNC(=O)CNc1ccc(O)c2c1C(=O)c1c(O)ccc(N)c1C2=O [Compound 9]
- staining pattern [1]: prominent nuclear and relatively dim cytsolic staining
- G2/G1 ratio (Live Jurkat cells [2]; 5 μM from 5 mM DI solution, 488 + 695/40): 1.89
- G2/G1 ratio (Live Jurkat cells [2]; 5 μM from 5 mM DI solution, 633 + 710/50): 1.85
- G2/G1 ratio (Live Jurkat cells [2]; 5 μM from 5 mM DMSO solution, 488 + 695/40): 1.88
- G2/G1 ratio (Live Jurkat cells [2]; 5 μM from 5 mM DMSO solution, 633 + 710/50): 1.85
- % CV of G1-phase (Live Jurkat cells [2]; 5 μM, all samples and conditions, MODFIT): < 8%
- % CV of G1-phase (Live Jurkat cells [3]): < 8%
- DNA content cell cycle staining (Live Jurkat cells [4]): demonstrated staining for DNA content cell cycle
- G2/G1 ratio (Live Jurkat cells [5]; 1 μM, RPMI media, 37° C.): 1.91
- G2/G1 ratio (Live Jurkat cells [5]; 5 μM, RPMI media, 37° C.): 1.83
- G2/G1 ratio (Live Jurkat cells [5]; 10 μM, HBSS buffer, 37° C.): 1.84
- G2/G1 ratio (Live Jurkat cells [5]; 10 μM, HBSS buffer, room temperature): 1.83
- G2/G1 ratio (Live Jurkat cells [5]; 10 μM, RPMI media, 37° C.): 1.82
- G2/G1 ratio (Live Jurkat cells [5]; 10 μM, RPMI media, room temperature): 1.82
- G2/G1 ratio (Live Jurkat cells [5]; 20 μM, RPMI media, 37° C.): 1.87
- % CV of G1-phase (Live Jurkat cells [5]; all concentrations (1-20 μM), media and HBSS, 37° C. and room temperature, MODFIT): < 8%
- G2/G1 ratios (linearity) (Live Jurkat cells [5]; all concentrations, MODFIT analysis): indicating linearity of staining
- DNA staining of live cells (Live Jurkat cells [5]; excited by 488, 532 and 633 nm lasers): effective stain for DNA
